Among the data in ChEMBL document CHEMBL1147290, “Toxicants from mangrove plants, V. Isolation of the piscicide, 2-hydroxy-5-methoxy-3-undecyl-1,4 benzoquinone (5-O-methylembelin) from Aegiceras corniculatum” (J Nat Prod, 1989) are Activity and zone of inhibition values, retold here.

Structures are written as SMILES.

One data set relates to Oreochromis niloticus. Briefly: Toxicity in Tilapia nilotica at 1 ppm within 75 mins. Format: organism-based. As to conditions: in vivo, 1.25 h.
Another data set has as its system Globisporangium ultimum. Briefly: Antifungal activity against Pythium ultimum at 1 mg. Format: functional. The following applies: read-out: IZ.

Turning to `CCCCCCCCCCCC1=C(O)C(=O)C=C(OC)C1=O` [5-O-METHYLEMBELIN], the Activity entry with Oreochromis niloticus is on record as “Toxic”. For the same molecule, the zone of inhibition at 1000 µg/disc with Globisporangium ultimum is 8 mm.
